Each structure is given as a SMILES string. Activity calls are given as the source filed them. The rule behind the calls is not given here.

The test system of experiment [1] is HDQ-P1. In words: Induction of P53 expression in human HDQ-P1 cells assessed as enrichment ratio at 3 uM incubated for 72 hrs in presence of 50 uM G418 by Hoechst 33323 staining based fluorescence assay. In kind it is functional.
For experiment [2], the system named is HDQ-P1. In words: Induction of P53 expression in human HDQ-P1 cells assessed as enrichment ratio at 10 uM incubated for 72 hrs in presence of 50 uM G418 by Hoechst 33323 staining based fluorescence assay. In kind it is functional.
Experiment [3] concerns HDQ-P1. In words: Induction of P53 expression in human HDQ-P1 cells assessed as enrichment ratio at 3 uM incubated for 72 hrs in presence of 50 uM G418 by automated electrophoresis western analysis. It is filed as functional.
Experiment [4] has as its system HDQ-P1. The experiment in a line: Induction of P53 expression in human HDQ-P1 cells assessed as enrichment ratio at 10 uM incubated for 72 hrs in presence of 50 uM G418 by automated electrophoresis western analysis. In kind it is functional.
In experiment [5] the test system is HDQ-P1. The experiment in a line: Induction of P53 expression in human HDQ-P1 cells assessed as enrichment ratio at 10 uM incubated for 72 hrs by automated electrophoresis western analysis. In kind it is functional.
In experiment [6] the test system is HDQ-P1. In words: Induction of P53 expression in human HDQ-P1 cells assessed as enrichment ratio at 30 uM incubated for 72 hrs by automated electrophoresis western analysis. It is filed as functional.
Experiment [7] relates to HDQ-P1. The experiment in a line: Induction of P53 expression in human HDQ-P1 cells assessed as enrichment ratio at 30 uM incubated for 72 hrs in presence of 25 uM G418 by automated electrophoresis western analysis. It is filed as functional.
Experiment [8] concerns HDQ-P1. The experiment in a line: Induction of P53 expression in human HDQ-P1 cells assessed as enrichment ratio at 10 uM incubated for 72 hrs in presence of 25 uM G418 by automated electrophoresis western analysis. In kind it is functional.
Experiment [9] concerns HDQ-P1. In words: Cytotoxicity in human HDQ-P1 cells assessed as reduction in cell viability incubated for 72 hrs in presence of G418 by MTT assay. It is filed as functional, cell-based. (In general: Formazan colour is commonly taken as a measure of viable cells.)
For experiment [10], the system named is HDQ-P1. In words: Induction of P53 expression in human HDQ-P1 cells assessed as enrichment ratio at 3 uM incubated for 72 hrs in presence of gentamicin by automated electrophoresis western analysis. It is filed as functional.
In experiment [11] the test system is HDQ-P1. The experiment in a line: Cytotoxicity in human HDQ-P1 cells assessed as reduction in cell viability at 3 uM incubated for 72 hrs by MTT assay relative to control. It is filed as functional.
The test system of experiment [12] is HDQ-P1. In words: Effect on human HDQ-P1 cells assessed as increase in TP53 R213X mRNA level at 10 uM incubated for 72 hrs in presence of G418 by RT-qPCR analysis. It is filed as functional, cell-based.
The test system of experiment [13] is HDQ-P1. In words: Effect on human HDQ-P1 cells assessed as increase in TP53 R213X mRNA level at 10 uM incubated for 72 hrs by RT-qPCR analysis. In kind it is functional, cell-based. Background: Real-time PCR tracks product formation cycle by cycle.
Experiment [14] concerns HDQ-P1. In words: Ratio of enrichment ratio of test compound at 10 uM to enrichment ratio of CDX5-1 at 30 uM in human HDQ-P1 cells by automated electrophoresis western analysis. It is filed as functional.
For experiment [15], the system named is HDQ-P1. The experiment in a line: Cytotoxicity in human HDQ-P1 cells assessed as reduction in cell viability at 1 uM incubated for 72 hrs by MTT assay. In kind it is functional, cell-based.

For `O=C(Nc1ccccc1)c1csc(Nc2ccc3[nH]ncc3c2)n1`, the Ratio in the experiment on HDQ-P1 [1] amounted to 2.5; in the experiment with HDQ-P1 [2], 11.2.

Consider `O=C(Nc1ccc2c(c1)OCCO2)c1csc(Nc2ccc(=O)[nH]c2)n1`, for which the Ratio in the experiment on HDQ-P1 [1] turned out to be 3.8; in the experiment on HDQ-P1 [3], 2.4; in the experiment on HDQ-P1 [4], 2.3; in the experiment on HDQ-P1 [2], 7.

Take `COc1ccc(NC(=O)c2csc(Nc3cccc4[nH]ncc34)n2)cc1`: the Ratio in the experiment on HDQ-P1 [1] is 1.6; in the experiment on HDQ-P1 [2], 5.9.

For the compound `O=C1NC(=O)c2cc(NCc3c(Cl)cccc3Cl)ccc21`, the Ratio is 0.1 in the experiment with HDQ-P1 [5], 0.1 with HDQ-P1 [6], 8.3 in the experiment on HDQ-P1 [7] and 2.8 with HDQ-P1 [8].

On to `O=C(Nc1ccc2c(c1)OCO2)c1cnc(Nc2ccc3[nH]ncc3c2)s1`, for which the Ratio is on record as 1.2 in the experiment on HDQ-P1 [1] and 19.2 in the experiment with HDQ-P1 [2].

As to `COc1ccc(NC(=O)c2csc(Nc3cccc4[nH]ncc34)n2)cn1`, the values for the Ratio with HDQ-P1 [1] and in the experiment on HDQ-P1 [2] were 1.4 and 27.2, respectively.

Consider `O=C(Nc1ccc2[nH]ncc2c1)c1csc(Nc2ccc3[nH]ccc3c2)n1`, for which the Ratio with HDQ-P1 [1] was found to be 1.4; in the experiment on HDQ-P1 [2], 8.

Take `O=C(Nc1ccc2c(c1)OCCO2)c1csc(Nc2ccc3ncccc3c2)n1`: the Ratio was 1.6 with HDQ-P1 [1] and 8.7 with HDQ-P1 [2].

With `CSc1ccc(NC(=O)c2csc(Nc3cccc4[nH]ncc34)n2)cc1`, the Ratio in the experiment with HDQ-P1 [5] is on record as 0.1; in the experiment with HDQ-P1 [1], 8.2; with HDQ-P1 [10], 10.8; with HDQ-P1 [3] it was 5.3; in the experiment on HDQ-P1 [14], 3; in the experiment on HDQ-P1 [4] it was 7.2. In addition, the Ratio with HDQ-P1 [2] is 20.1; in the experiment with HDQ-P1 [8], 8.8. The result with HDQ-P1 [9] was Active. The Activity in the experiment with HDQ-P1 [11] is 60%. Further, the outcome in the experiment on HDQ-P1 [12], in the experiment on HDQ-P1 [13] and with HDQ-P1 [15] was inactive.

Turning to `O=C(Nc1ccc(F)cc1)c1csc(Nc2cccc3[nH]ncc23)n1`, the Ratio was found to be 0.3 with HDQ-P1 [5]; 13.1 in the experiment on HDQ-P1 [1]; 13.1 with HDQ-P1 [3]; 3 in the experiment with HDQ-P1 [14]; 23.3 in the experiment with HDQ-P1 [4]; 23.3 in the experiment with HDQ-P1 [2]. Besides, the Ratio with HDQ-P1 [8] stood at 25.7. The result with HDQ-P1 [9] was Active. Further, the Activity in the experiment on HDQ-P1 [11] was 42%. The outcome in the experiment with HDQ-P1 [12], in the experiment on HDQ-P1 [13] and in the experiment on HDQ-P1 [15] was inactive.

On to `COc1ccc(NC(=O)c2cnc(Nc3ccc4[nH]ncc4c3)s2)cn1`, for which the figures for the Ratio in the experiment with HDQ-P1 [1] and in the experiment on HDQ-P1 [2] were 2.2 and 7.8, respectively.

In the case of `O=C(Nc1ccc2[nH]ccc2c1)c1csc(Nc2ccc3[nH]ncc3c2)n1`, the values for the Ratio in the experiment with HDQ-P1 [1] and in the experiment with HDQ-P1 [2] were 1.3 and 23, respectively.

Consider `COc1cc(NC(=O)c2csc(Nc3cccc4[nH]ncc34)n2)cc(OC)c1OC`, for which the Ratio in the experiment with HDQ-P1 [1] is 5.3; with HDQ-P1 [3] it was 8.2; with HDQ-P1 [4], 20.1; in the experiment with HDQ-P1 [2] it was 7.2.

As for `CSc1ccc(NC(=O)c2cnc(Nc3ccc4[nH]ncc4c3)s2)cc1`, the Ratio in the experiment on HDQ-P1 [1] turned out to be 1.6; in the experiment with HDQ-P1 [2] it was 4.7.

With `O=C(Nc1ccc2c(c1)OCO2)c1csc(Nc2ccc3[nH]ncc3c2)n1`, the Ratio is 1.2 in the experiment with HDQ-P1 [1] and 5.4 with HDQ-P1 [2].

`O=C(Nc1ccc2c(c1)OCO2)c1csc(Nc2ccc3ncccc3c2)n1`: the Ratio came to 3.5 with HDQ-P1 [1], 3.6 in the experiment with HDQ-P1 [3], 10.7 in the experiment with HDQ-P1 [4] and 10.7 in the experiment with HDQ-P1 [2].

In the case of `O=C(Nc1ccc2c(c1)OCCO2)c1csc(Nc2cccc3[nH]ncc23)n1`, the Ratio in the experiment with HDQ-P1 [1] was 3.4; with HDQ-P1 [3], 3.4; in the experiment with HDQ-P1 [4], 15.8; in the experiment on HDQ-P1 [2] it was 15.8.

For the origin of these results see ChEMBL document CHEMBL4396882, “2-Aminothiazole-4-carboxamides Enhance Readthrough of Premature Termination Codons by Aminoglycosides” (2019).
